EP0318859A2, “N-substituted mercaptopropanamide derivatives” (Dainippon Pharmaceutical Co., Ltd., priority 1987, dated 1989)

Experiments:
Female Std:ddy mice = assay: Analgesic activity (mouse phenylquinone writhing test); assay type: in vivo; conditions: po, 30 minutes before i.p. phenylquinone, reduction in writhes greater than 50 % of vehicle control = effective, Litchfield and Wilcoxon, read-out: ED₅₀
Experimental: (1) Analgesic activity (mouse phenylquinone writhing test)
Female Std:ddy mice (weighing 18 - 22 g) were used. Each animal was given intraperitoneally 10 ml/kg of 0.03 % phenylquinone in 5 % aqueous ethanol, and the number of writhes was counted for 15 minutes, beginning 5 minutes after the injection of phenylquinone. Test compounds, suspended or dissolved in 0.5 % gum tragacanth aqueous solution, were given orally 30 minutes before the injection of phenylquinone. A reduction in writhes counts greater than 50 % of the vehicle control value was considered to be effective. The ED₅₀-value was calculated from the effective rate according to the method of Litchfield and Wilcoxon.

enkephalinase [1] = target: T1, enkephalinase (Rattus norvegicus, UniProt P07861); assay: Enkephalinase inhibitory activity in vitro ([³H]-leucine-enkephalin degradation); assay type: biochemical, rats; conditions: rat striatum enkephalinase; substrate [³H]-leucine-enkephalin 20 nM; 1 hour at 37°C; read-out: IC₅₀
T1 construct: Male Std:Wistar rats were decapitated and the striata were removed; from tissue; host or cells: rat striatum (membrane pellet, solubilised with 1 % Triton X-100, DEAE-cellulose fraction)
T1 sequence (P07861 1-750): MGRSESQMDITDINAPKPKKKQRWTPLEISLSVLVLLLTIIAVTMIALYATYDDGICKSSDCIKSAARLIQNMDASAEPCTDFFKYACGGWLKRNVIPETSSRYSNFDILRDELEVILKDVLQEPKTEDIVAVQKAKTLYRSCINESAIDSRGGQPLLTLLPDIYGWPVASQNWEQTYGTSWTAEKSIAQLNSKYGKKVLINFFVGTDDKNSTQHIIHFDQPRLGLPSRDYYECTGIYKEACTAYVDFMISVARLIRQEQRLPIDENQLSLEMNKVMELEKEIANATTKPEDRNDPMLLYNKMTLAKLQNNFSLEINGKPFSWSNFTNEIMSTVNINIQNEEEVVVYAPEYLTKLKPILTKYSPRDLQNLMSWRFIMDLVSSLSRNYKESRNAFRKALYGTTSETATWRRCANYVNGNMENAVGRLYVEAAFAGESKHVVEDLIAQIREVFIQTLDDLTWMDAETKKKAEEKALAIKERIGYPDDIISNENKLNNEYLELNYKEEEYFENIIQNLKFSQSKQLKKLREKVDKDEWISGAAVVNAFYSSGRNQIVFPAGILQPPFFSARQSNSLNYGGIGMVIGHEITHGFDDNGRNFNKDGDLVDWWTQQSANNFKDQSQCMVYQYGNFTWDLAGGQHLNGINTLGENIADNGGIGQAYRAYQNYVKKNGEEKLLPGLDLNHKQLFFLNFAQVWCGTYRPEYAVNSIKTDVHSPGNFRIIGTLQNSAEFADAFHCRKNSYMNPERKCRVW
Experimental: (3) Enkephalinase inhibitory activity in vitro
Enkephalin degrading enzymes were separated according to the method described by Gorenstein and Snyder (Life Science, 25, 2065 (1979)).
Male Std:Wistar rats were decapitated and the striata were removed. These were homogenized in 30 volumes of 50 mM Tris-HCl buffer (pH 7.4) and centrifuged for 15 minutes at 1,000 x g. The supernatant was centrifuged for 15 minutes at 50,000 x g. The pellet was washed three times with the same buffer and then suspended in 15 volumes of 50 mM Tris-HCl buffer (pH 7.4) containing 1 % Triton X-100, followed by incubation for 45 minutes at 37°C. After centrifugation for 1 hour at 100,000 x g, the supernatant was applied onto DEAE-cellulose ion exchange chromatography column. The fraction containing enkephalin dipeptidylcarboxypeptidase was used as enkephalinase sample.
(ii) Measurement of inhibitory activity
After preincubation of test compound and enkephalinase for 5 minutes at 37°C, [³H]-leucine-enkephalin (substrate) was added to the reaction mixture and then the mixture was incubated for 1 hour at 37°C (final volume: 100 µl, final concentration of substarate: 20 nM). Ice-cold 0.2N HCl was added to the mixture to stop the reaction. Substrate and metabolites were separated with TLC and Porapak Q® column by the method of Vogel and Alstein [FEBS Letters, 80, 332 (1977)]. Enzyme activity was estimated from the production rate of [³H]-Tyr-Gly-Gly. The IC₅₀-value of test compounds was calculated from the inhibitory rates, estimated from the difference between the enzyme activities in the absence and the presence of test compound.

enkephalinase [2] = assay: Enkephalinase inhibitory activity in vivo (potentiation of the analgesic activity of DAME, tail pressure pain); conditions: p.o., 30 minutes before intracisternal DAME; pressure pain threshold measured 5 minutes after DAME; male Std:ddy mice
Experimental: (2) Enkephalinase inhibitory activity in vivo
(Potentiation of the analgesic activity of DAME)
Pressure pain was induced by pressing the tail of male Std:ddy mice (weighing 20 - 26 g) using an apparatus for pressure measurement. The pressure pain threshold (biting response) was measured as mm. Test compound, dissolved or suspended in 0.5 % gum tragacanth aqueous solution, was given orally 30 minutes before intracisternaly administration of D-Ala²-Met⁵-enkephalin (DAME). Five minutes after administration of DAME, the pressure pain threshold was measured, and the potentiation activity of test compounds on the analgesic effect of DAME was tested.

Question: `CC(=O)SCC(Cc1ccccc1)C(=O)Nc1cccc(C(=O)O)c1C` (stereo not shown) [Example 3, 3-[(2-acetylthiomethyl-3-phenylpropionyl)amino]-2-methylbenzoic acid] was tested. Which ED50 (Female Std:ddy mice) did it give?
Answer: Its ED50 is 21.6 mg/kg.

Question: What does the source list for `CC(C)CC(CS)C(=O)Nc1cccc(C(=O)O)c1` (stereo not shown) [Example 186, 3-[(2-mercaptomethyl-4-methylpentanoyl)amino]benzoic acid]?
Answer: ED50 (Female Std:ddy mice): 15 mg/kg; IC50 (enkephalinase [1]): 8.4 nM

Question: Which ED50 (Female Std:ddy mice) does the source give for `CCc1cc(NC(=O)C(CSC(C)=O)Cc2ccccc2)cc(C(=O)O)c1` (stereo not shown) [Example 64, 3-[(2-acetylthiomethyl-3-phenylpropionyl)amino]-5-ethylbenzoic acid] here?
Answer: Its ED50 is 11 mg/kg.

Question: What about the ED₅₀ (enkephalinase [2]) of the same compound?
Answer: The ED₅₀ was 20.8 mg/kg.

Question: Which ED50 (Female Std:ddy mice) does the source give for `O=C(O)CNC(=O)C(CS)Cc1ccccc1` (stereo not shown) [Thiorphan, [(D,L)-2-mercaptomethyl-3-phenylpropionyl]glycine, reference compound] here?
Answer: Its ED50 is 137 mg/kg.

Question: Which results are given for `CCc1cc(NC(=O)C(CS)Cc2ccccc2)cc(C(=O)O)c1` (stereo not shown) [Example 65, 3-[(2-mercaptomethyl-3-phenylpropionyl)amino]-5-ethylbenzoic acid]?
Answer: ED50 (Female Std:ddy mice): 22.9 mg/kg; IC50 (enkephalinase [1]): 4.6 nM

Question: For `Cc1c(NC(=O)C(CS)CC(C)C)cccc1C(=O)O` (stereo not shown) [Example 187, 3-[(2-mercaptomethyl-4-methylpentanoyl)amino]-2-methylbenzoic acid], which ED50 (Female Std:ddy mice) is on record?
Answer: The ED50 was 20.1 mg/kg.

Question: What about the IC50 (enkephalinase [1]) of the same compound?
Answer: The IC50 was 7.8 nM.

Question: For `CC(=O)SCC(Cc1ccccc1)C(=O)Nc1cc(C)cc(C(=O)O)c1` (stereo not shown) [Example 1, 3-[(2-acetylthiomethyl-3-phenylpropionyl)amino]-5-methylbenzoic acid], which ED50 (Female Std:ddy mice) is on record?
Answer: Its ED50 is 22.3 mg/kg.

Question: With `Cc1c(NC(=O)C(CS)Cc2ccccc2)cccc1C(=O)O` (stereo not shown) [Example 7, 3-[(2-mercaptomethyl-3-phenylpropionyl)amino]-2-methylbenzoic acid] as the compound, how does the ED50 (Female Std:ddy mice) read?
Answer: The ED50 was 17.9 mg/kg.

Question: And the IC50 (enkephalinase [1])?
Answer: The IC50 was 7.5 nM.

Question: What about the ED₅₀ (enkephalinase [2]) of the same compound?
Answer: Its ED₅₀ is 38.3 mg/kg.

Question: With `Cc1cc(NC(=O)C(CS)Cc2ccccc2)cc(C(=O)O)c1` (stereo not shown) [Example 2, 3-[(2-mercaptomethyl-3-phenylpropionyl)amino]-5-methylbenzoic acid] as the compound, how does the ED50 (Female Std:ddy mice) read?
Answer: Its ED50 is 16.6 mg/kg.

Question: What about the IC50 (enkephalinase [1]) of the same compound?
Answer: The IC50 was 5.4 nM.

Question: What about the ED₅₀ (enkephalinase [2]) of the same compound?
Answer: The ED₅₀ was 20.2 mg/kg.

Question: Which ED50 (Female Std:ddy mice) does the source give for `CC(=O)SCC(CC(C)C)C(=O)Nc1cccc(C(=O)O)c1C` (stereo not shown) [Example 175, 3-[(2-acetylthiomethyl-4-methylpentanoyl)amino]-2-methylbenzoic acid] here?
Answer: Its ED50 is 21.1 mg/kg.

Question: For `CC(=O)SCC(CC(C)C)C(=O)Nc1cc(C)cc(C(=O)O)c1` (stereo not shown) [Example 176, 3-[(2-acetylthiomethyl-4-methylpentanoyl)amino]-5-methylbenzoic acid], which ED50 (Female Std:ddy mice) is on record?
Answer: Its ED50 is 22.9 mg/kg.
